From patent publication US7183299B2 (priority 2001, dated 2007)

Legend:
[1] = system: downy mildew (Plasmopara viticola) on grape; settings: in vivo
late blight on tomato = assay type: in vivo, Plasmopara viticola; settings: tomato (Hofuku), therapeutic effect, sprayed after inoculation, active ingredient 100 ppm, disease severity 7 days after inoculation

For CCCCOC(=O)Nc1cccc(CON=C(c2ccccc2)c2nnnn2C)n1 [(3)-5], the “Control value (%)” value [1] was 100% and the “Control value (%)” value (late blight on tomato) was 100%.
With Cn1nnnc1C(=NOCc1cccc(NC(=O)OC(C)(C)C)n1)c1ccccc1 [(3)-8] the “Control value (%)” value [1] was 100% and the “Control value (%)” value (late blight on tomato) was 100%.
In the case of CC(=O)Nc1cccc(CON=C(c2ccccc2)n2nnnc2C)n1 [(11)-4], the “Control value (%)” value [1] is reported as 70% and the “Control value (%)” value (late blight on tomato) is reported as 80%.
Cn1nnnc1C(=NOCc1cccc(NC(=O)OCc2ccccc2)n1)c1ccccc1 [(3)-18] was tested, and the “Control value (%)” value [1] was 100% and the “Control value (%)” value (late blight on tomato) was 100%.
For Cn1nnnc1C(=NOCc1cccc(NC(=O)CC(C)(C)C)n1)c1ccccc1 [(1)-16], the “Control value (%)” value [1] was 70% and the “Control value (%)” value (late blight on tomato) was 100%.
In the case of CCCCOC(=O)Nc1cccc(CON=C(c2ccc([N+](=O)[O-])cc2)n2nnnc2C)n1 [(19)-29], the “Control value (%)” value [1] is reported as 80% and the “Control value (%)” value (late blight on tomato) is reported as 100%.
For CCCC(=O)Nc1nc(CON=C(c2ccc(Cl)cc2)n2nnnc2C)cs1 [(18)-1], the “Control value (%)” value [1] was 100% and the “Control value (%)” value (late blight on tomato) was 100%.
In the case of CCCCCOC(=O)Nc1cccc(CON=C(c2ccc(S(C)(=O)=O)cc2)n2nnnc2C)n1 [(19)-28], the “Control value (%)” value [1] is reported as 100% and the “Control value (%)” value (late blight on tomato) is reported as 100%.
In the case of CCCCOC(=O)Nc1cccc(CON=C(c2ccccc2)n2nnnc2C)n1 [(19)-33], the “Control value (%)” value [1] is reported as 100% and the “Control value (%)” value (late blight on tomato) is reported as 100%.
CCOCC(=O)Nc1nc(CON=C(c2ccccc2)c2nnnn2C)cs1 [(6)-2] was tested, and the “Control value (%)” value [1] was 70% and the “Control value (%)” value (late blight on tomato) was 80%.
In the case of COc1ccc(C(=NOCc2cccc(NC(=O)C3CC3)n2)c2nnnn2C)cc1 [(7)-11], the “Control value (%)” value [1] is reported as 70% and the “Control value (%)” value (late blight on tomato) is reported as 80%.
CCCOC(=O)Nc1cccc(CON=C(c2cccc(F)c2)c2nnnn2C)n1 [(9)-6] was tested, and the “Control value (%)” value [1] was 70% and the “Control value (%)” value (late blight on tomato) was 100%.
CC(C)C(=O)Nc1cccc(CON=C(c2ccccc2)c2nnnn2C)n1 [(1)-7] was tested, and the “Control value (%)” value [1] was 100% and the “Control value (%)” value (late blight on tomato) was 100%.
In the case of CC(C)C(=O)Nc1nc(CON=C(c2ccc(Cl)cc2)c2nnnn2C)cs1 [(8)-2], the “Control value (%)” value [1] is reported as 70% and the “Control value (%)” value (late blight on tomato) is reported as 90%.
CCC(=O)Nc1cccc(CON=C(c2ccccc2)n2nnnc2C)n1 [(11)-5] was tested, and the “Control value (%)” value [1] was 70% and the “Control value (%)” value (late blight on tomato) was 80%.
Cn1nnnc1C(=NOCc1csc(NC(=O)C(C)(C)C)n1)c1cccc(F)c1 [(8)-7] was tested, and the “Control value (%)” value [1] was 70% and the “Control value (%)” value (late blight on tomato) was 80%.
CCCCCC(=O)Nc1nc(CON=C(c2ccccc2)c2nnnn2C)cs1 [(2)-12] was tested, and the “Control value (%)” value [1] was 90% and the “Control value (%)” value (late blight on tomato) was 100%.
CCCC(=O)Nc1nc(CON=C(c2ccccc2)n2nnnc2C)cs1 [(12)-6] was tested, and the “Control value (%)” value [1] was 80% and the “Control value (%)” value (late blight on tomato) was 100%.
For Cn1nnnc1C(=NOCc1cccc(NC(=O)OC2CCCCC2)n1)c1ccccc1 [(3)-23], the “Control value (%)” value [1] was 80% and the “Control value (%)” value (late blight on tomato) was 100%.
CCCCCOC(=O)Nc1cccc(CON=C(c2ccccc2)n2nnnc2C)n1 [(13)-9] was tested, and the “Control value (%)” value [1] was 100% and the “Control value (%)” value (late blight on tomato) was 100%.
CCCCCC(=O)Nc1cccc(CON=C(c2cccc(C)c2)c2nnnn2C)n1 [(9)-7] was tested, and the “Control value (%)” value [1] was 100% and the “Control value (%)” value (late blight on tomato) was 100%.
With Cn1nnnc1C(=NOCc1cccc(NC(=O)OC(C)(C)C)n1)c1cccc(F)c1 [(9)-1] the “Control value (%)” value [1] was 100% and the “Control value (%)” value (late blight on tomato) was 100%.
CCCCOC(=O)Nc1cccc(CON=C(c2ccc(CC)cc2)n2nnnc2C)n1 [(19)-34] was tested, and the “Control value (%)” value [1] was 80% and the “Control value (%)” value (late blight on tomato) was 100%.
For Cn1nnnc1C(=NOCc1csc(NC(=O)C(C)(C)C)n1)c1ccccc1 [(2)-11], the “Control value (%)” value [1] was 100% and the “Control value (%)” value (late blight on tomato) was 100%.
Cc1nnnn1C(=NOCc1cccc(NC(=O)OC(C)(C)C)n1)c1cccc(F)c1 [(19)-1] was tested, and the “Control value (%)” value [1] was 100% and the “Control value (%)” value (late blight on tomato) was 100%.
COc1ccc(C(=NOCc2csc(NC(=O)C(C)(C)C)n2)c2nnnn2C)cc1 [(8)-10] was tested, and the “Control value (%)” value [1] was 70% and the “Control value (%)” value (late blight on tomato) was 90%.
For CCCCOC(=O)Nc1cccc(CON=C(c2ccc(F)cc2)n2nnnc2C)n1 [(19)-12], the “Control value (%)” value [1] was 90% and the “Control value (%)” value (late blight on tomato) was 100%.
In the case of CCCCCC(=O)Nc1cccc(CON=C(c2ccc(C)cc2)c2nnnn2C)n1 [(7)-12], the “Control value (%)” value [1] is reported as 100% and the “Control value (%)” value (late blight on tomato) is reported as 100%.
Cn1nnnc1C(=NOCc1cccc(NC(=O)C2CC2)n1)c1ccccc1 [(1)-21] was tested, and the “Control value (%)” value [1] was 70% and the “Control value (%)” value (late blight on tomato) was 90%.
For CCCCOC(=O)Nc1cccc(CON=C(c2cccc(F)c2)n2nnnc2C)n1 [(19)-11], the “Control value (%)” value [1] was 80% and the “Control value (%)” value (late blight on tomato) was 90%.
In the case of CSCCC(=O)Nc1nc(CON=C(c2ccccc2)c2nnnn2C)cs1 [(6)-6], the “Control value (%)” value [1] is reported as 70% and the “Control value (%)” value (late blight on tomato) is reported as 80%.
For CCCCOC(=O)Nc1cccc(CON=C(c2ccc(C(C)(C)C)cc2)n2nnnc2C)n1 [(19)-35], the “Control value (%)” value [1] was 70% and the “Control value (%)” value (late blight on tomato) was 80%.
With CCCCCCC(=O)Nc1cccc(CON=C(c2ccccc2)c2nnnn2C)n1 [(1)-18] the “Control value (%)” value [1] was 100% and the “Control value (%)” value (late blight on tomato) was 100%.
Cc1nnnn1C(=NOCc1cccc(NC(=O)OC2CCCC2)n1)c1ccccc1 [(13)-21] was tested, and the “Control value (%)” value [1] was 80% and the “Control value (%)” value (late blight on tomato) was 100%.
In the case of Cn1nnnc1C(=NOCc1csc(NC(=O)CC(C)(C)C)n1)c1ccccc1 [(2)-16], the “Control value (%)” value [1] is reported as 90% and the “Control value (%)” value (late blight on tomato) is reported as 100%.
For CCCCOC(=O)Nc1cccc(CON=C(c2ccc(C(F)(F)F)cc2)n2nnnc2C)n1 [(19)-31], the “Control value (%)” value [1] was 90% and the “Control value (%)” value (late blight on tomato) was 100%.
With CCC(C)(C)OC(=O)Nc1cccc(CON=C(c2ccc(C)cc2)c2nnnn2C)n1 [(9)-9] the “Control value (%)” value [1] was 100% and the “Control value (%)” value (late blight on tomato) was 100%.
In the case of CCCCCOC(=O)Nc1cccc(CON=C(c2ccccc2C)c2nnnn2C)n1 [(9)-10], the “Control value (%)” value [1] is reported as 100% and the “Control value (%)” value (late blight on tomato) is reported as 100%.
With “(Z)-(1-methyltetrazol-5-yl)phenylmethanoneoxime 0-(2-(n-pentyloxycarbonylamino)thiazol-4-yl)methyloxime [(4)-9]” the “Control value (%)” value [1] was 80% and the “Control value (%)” value (late blight on tomato) was 100%.
With Cc1nnnn1C(=NOCc1cccc(NC(=O)OC2CCCCC2)n1)c1ccccc1 [(13)-22] the “Control value (%)” value [1] was 100% and the “Control value (%)” value (late blight on tomato) was 100%.
CCCOCCC(=O)Nc1nc(CON=C(c2ccccc2)c2nnnn2C)cs1 [(6)-15] was tested, and the “Control value (%)” value [1] was 70% and the “Control value (%)” value (late blight on tomato) was 90%.
CCCCCCOC(=O)Nc1cccc(CON=C(c2ccccc2)n2nnnc2C)n1 [(13)-15] was tested, and the “Control value (%)” value [1] was 80% and the “Control value (%)” value (late blight on tomato) was 90%.
For CCCCOC(=O)Nc1cccc(CON=C(c2cccc(Cl)c2)n2nnnc2C)n1 [(19)-13], the “Control value (%)” value [1] was 100% and the “Control value (%)” value (late blight on tomato) was 100%.
With CCCCCOC(=O)Nc1cccc(CON=C(c2ccc(C)cc2)c2nnnn2C)n1 [(9)-5] the “Control value (%)” value [1] was 100% and the “Control value (%)” value (late blight on tomato) was 100%.
With Cn1nnnc1C(=NOCc1cccc(NC(=O)C2CC2)n1)c1ccc(Cl)cc1 [(7)-3] the “Control value (%)” value [1] was 80% and the “Control value (%)” value (late blight on tomato) was 80%.
In the case of CCOC(=O)Nc1cccc(CON=C(c2ccccc2)c2nnnn2C)n1 [(3)-2], the “Control value (%)” value [1] is reported as 70% and the “Control value (%)” value (late blight on tomato) is reported as 90%.
In the case of Cn1nnnc1C(=NOCc1cccc(NC(=O)Cc2ccccc2)n1)c1ccccc1 [(5)-12], the “Control value (%)” value [1] is reported as 100% and the “Control value (%)” value (late blight on tomato) is reported as 100%.
CC(C)OC(=O)Nc1cccc(CON=C(c2ccccc2)c2nnnn2C)n1 [(3)-4] was tested, and the “Control value (%)” value [1] was 90% and the “Control value (%)” value (late blight on tomato) was 100%.
Cc1ccc(C(=NOCc2cccc(NC(=O)OC(C)(C)C)n2)c2nnnn2C)cc1 [(9)-4] was tested, and the “Control value (%)” value [1] was 100% and the “Control value (%)” value (late blight on tomato) was 100%.
For CCCCC(=O)Nc1cccc(CON=C(c2ccccc2)c2nnnn2C)n1 [(1)-8], the “Control value (%)” value [1] was 70% and the “Control value (%)” value (late blight on tomato) was 90%.
For CCCCCC(=O)Nc1nc(CON=C(c2ccccc2)n2nnnc2C)cs1 [(12)-12, (Z)-(5-methyltetrazol-1-yl)phenylmethanoneoxime 0-(2-(n-hexanoylamino)thiazol-4-yl)methyloxime], the “Control value (%)” value [1] was 90% and the “Control value (%)” value (late blight on tomato) was 100%.
CCCCCCCOC(=O)Nc1cccc(CON=C(c2ccccc2)c2nnnn2C)n1 [(3)-16] was tested, and the “Control value (%)” value [1] was 100% and the “Control value (%)” value (late blight on tomato) was 100%.
For Cn1nnnc1C(=NOCc1csc(NC(=O)OCc2ccccc2)n1)c1ccccc1 [(4)-18], the “Control value (%)” value [1] was 70% and the “Control value (%)” value (late blight on tomato) was 90%.
In the case of Cc1nnnn1C(=NOCc1csc(NC(=O)C(C)C)n1)c1ccccc1 [(12)-7], the “Control value (%)” value [1] is reported as 90% and the “Control value (%)” value (late blight on tomato) is reported as 100%.
In the case of Cc1nnnn1C(=NOCc1csc(NC(=O)c2ccccc2)n1)c1ccccc1 [(16)-3], the “Control value (%)” value [1] is reported as 70% and the “Control value (%)” value (late blight on tomato) is reported as 80%.
With CCCCOC(=O)Nc1cccc(CON=C(c2ccc(OC)cc2)n2nnnc2C)n1 [(19)-23] the “Control value (%)” value [1] was 70% and the “Control value (%)” value (late blight on tomato) was 80%.
